Measured values taken from patent publication US9725459B2, “3-oxo-tetrahydro-furo[3,2-B]pyrrol-4(5H)-yl) derivatives I” (GRÜNENTHAL GMBH, priority 2014, dated 2017).

Experiments:
Format in all cases: biochemical
human cathepsin K (CatK) = human cathepsin K (CatK) (Homo sapiens (Human), UniProt P43235); test: CatK functional enzyme assay; settings: recombinant human CatK, substrate Z-FR-AMC 40 μM, pH 5.5; Ki by Cheng Prusoff equation; read-out: hCatK, Ki
Protocol: (§1) Reference and test compounds were assayed for inhibitory potency (IC50) against human cathepsins using the following assay setups:
(§2) Recombinant human cathepsins (CatS, CatK, CatL) were purchased from a Enzo Life Sciences. All assays were carried out in 96-well format using a buffer of 50 mM KH2PO4, 50 mM NaCl, 2 mM EDTA, 0.5 mM DTT and 1% Triton-X-100, pH 6.5 for Cathepsin S and a buffer of 50 mM NaOAc, 10 mM EDTA, 1 mM DTT and 0.01% Triton-X-100, pH 5.5 for CatK/L/B. For CatS, the enzyme (0.0007 mU/well) was incubated with fluorogeninc substrate (Z-VVR-AMC, 5 μM) at RT for 10 min. For CatK the enzyme (0.00175 mU/well) was incubated with fluorogeninc substrate (Z-FR-AMC, 40 μM) at RT for 10 min. For CatL, the enzyme (0.000874 mU/well) was incubated with fluorogeninc substrate (Z-VVR-AMC, 40 μM) at RT for 10 min. Flourogenic substrate turnover was detected using a microplate reader (Synergy™ H4, BioTek). Ki values were calculated using the Cheng Prusoff equation (Cheng & Prosoff 1973).

human cathepsin S (CatS) = human cathepsin S (CatS) (Homo sapiens (Human), UniProt P25774); test: CatS functional enzyme assay; settings: for Selectivity Ki(hCatS)/Ki(hCatK): ratio Ki(hCatS)/Ki(hCatK); for Ki: recombinant human CatS, substrate Z-VVR-AMC 5 μM, pH 6.5, Ki by Cheng Prusoff equation, read-out: hCatS, Ki
Protocol: as §2, with “Reference and test compounds were assayed for inhibitory potency (IC50) against human cathepsins using the following assay setups: Recombinant” for “Recombinant”, “All assays were carried out in 96-well format using a buffer of 50 mM KH2PO4, 50 mM NaCl, 2 mM EDTA, 0.5 mM DTT and 1% Triton-X-100, pH 6.5 for Cathepsin S and a buffer of 50 mM NaOAc, 10 mM EDTA, 1 mM DTT and 0.01% Triton-X-100, pH 5.5 for CatK/L/B.” left out

human cathepsin L (CatL) = human cathepsin L (CatL) (Homo sapiens (Human), UniProt P07711); test: CatL functional enzyme assay; settings: read-out: hCatL, inhibition [%] at 31.6 μM
Protocol: as §1, §2

human cathepsin K (CatK), sequence (P43235 115-329): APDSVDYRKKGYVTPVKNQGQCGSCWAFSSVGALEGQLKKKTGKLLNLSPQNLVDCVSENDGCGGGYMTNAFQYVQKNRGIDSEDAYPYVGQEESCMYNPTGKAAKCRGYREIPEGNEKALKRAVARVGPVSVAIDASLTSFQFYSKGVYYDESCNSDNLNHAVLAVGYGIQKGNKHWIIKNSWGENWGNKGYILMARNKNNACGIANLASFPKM
human cathepsin S (CatS), sequence (P25774 115-331): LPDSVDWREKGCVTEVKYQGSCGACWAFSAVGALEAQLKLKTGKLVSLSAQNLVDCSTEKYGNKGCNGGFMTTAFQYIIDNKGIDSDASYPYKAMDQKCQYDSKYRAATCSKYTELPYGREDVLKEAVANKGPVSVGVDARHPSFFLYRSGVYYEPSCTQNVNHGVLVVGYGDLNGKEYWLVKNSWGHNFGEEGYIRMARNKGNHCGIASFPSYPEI
human cathepsin L (CatL), sequence (P07711 114-333): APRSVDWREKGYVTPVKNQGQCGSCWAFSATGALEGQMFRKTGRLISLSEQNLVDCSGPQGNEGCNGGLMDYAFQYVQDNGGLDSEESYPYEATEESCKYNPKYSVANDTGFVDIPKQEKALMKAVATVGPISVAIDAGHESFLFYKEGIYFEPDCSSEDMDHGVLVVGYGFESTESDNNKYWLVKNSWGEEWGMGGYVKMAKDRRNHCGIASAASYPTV

Ki (human cathepsin K (CatK)) [nM]	Selectivity Ki(hCatS)/Ki(hCatK) (human cathepsin S (CatS))	Ki (human cathepsin S (CatS)) [nM]	inhibition at 31.6 µM (human cathepsin L (CatL)) [%]	inhibition at 10 µM (human cathepsin S (CatS); read-out: hCatS, inhibition [%] at 10 μM) [%]	Structure (SMILES)
11	5.5	60	36	–	O=C(N[C@H](C(=O)N1C[C@H](Cl)[C@H]2OCC(=O)[C@H]21)C1CCCCC1)c1ccc(-c2cccnn2)s1 [Example 6, N-((S)-2-((3aS,6S,6aS)-6-chloro-3-oxotetrahydro-2H-furo[3,2-b]pyrrol-4(5H)-yl)-1-cyclohexyl-2-oxoethyl)-5-(pyridazin-3-yl)thiophene-2-carboxamide]
10	7.3	73	20	–	Cc1cnncc1-c1ccc(C(=O)N[C@H](C(=O)N2C[C@H](Cl)[C@H]3OCC(=O)[C@H]32)C2CCCCC2)s1 [Example 90, N-((S)-2-((3aS,6S,6aS)-6-chloro-3-oxotetrahydro-2H-furo[3,2-b]pyrrol-4(5H)-yl)-1-cyclohexyl-2-oxoethyl)-5-(5-methylpyridazin-4-yl)thiophene-2-carboxamide]
18	0.7	13	12	–	Cc1cc(-c2ccc(C(=O)N[C@H](C(=O)N3C[C@H](Cl)[C@H]4OCC(=O)[C@H]43)C3CCCCC3)s2)c(C)nn1 [Example 89, N-((S)-2-((3aS,6S,6aS)-6-chloro-3-oxotetrahydro-2H-furo[3,2-b]pyrrol-4(5H)-yl)-1-cyclohexyl-2-oxoethyl)-5-(3,6-dimethylpyridazin-4-yl)thiophene-2-carboxamide]
13	19.9	259	15	–	O=C(N[C@H](C(=O)N1C[C@H](Cl)[C@H]2OCC(=O)[C@H]21)C1CCCCC1)c1ccc(-c2cncc(F)c2)s1 [Example 16, N-((S)-2-((3aS,6S,6aS)-6-chloro-3-oxotetrahydro-2H-furo[3,2-b]pyrrol-4(5H)-yl)-1-cyclohexyl-2-oxoethyl)-5-(5-fluoropyridin-3-yl)thiophene-2-carboxamide]
7	44.0	296	1	–	Cc1ncccc1-c1ccc(C(=O)N[C@H](C(=O)N2C[C@H](Cl)[C@H]3OCC(=O)[C@H]32)C2CCCCC2)s1 [Example 83, N-((S)-2-((3aS,6S,6aS)-6-chloro-3-oxotetrahydro-2H-furo[3,2-b]pyrrol-4(5H)-yl)-1-cyclohexyl-2-oxoethyl)-5-(2-methylpyridin-3-yl)thiophene-2-carboxamide]
39	1.4	55	30	–	COc1cnnc(-c2ccc(C(=O)N[C@H](C(=O)N3C[C@H](Cl)[C@H]4OCC(=O)[C@H]43)C3CCCCC3)s2)c1 [Example 72, N-((S)-2-((3aS,6S,6aS)-6-chloro-3-oxotetrahydro-2H-furo[3,2-b]pyrrol-4(5H)-yl)-1-cyclohexyl-2-oxoethyl)-5-(5-methoxypyridazin-3-yl)thiophene-2-carboxamide]
–	21.5	–	15	–	COc1ccc(-c2ccc(C(=O)N[C@H](C(=O)N3C[C@H](Cl)[C@H]4OCC(=O)[C@H]43)C3CCCCC3)s2)nn1 [Example 34, N-((S)-2-((3aS,6S,6aS)-6-chloro-3-oxotetrahydro-2H-furo[3,2-b]pyrrol-4(5H)-yl)-1-cyclohexyl-2-oxoethyl)-5-(6-methoxypyridazin-3-yl)thiophene-2-carboxamide]
–	26.4	–	6	–	Cc1nccc(-c2ccc(C(=O)N[C@H](C(=O)N3C[C@H](Cl)[C@H]4OCC(=O)[C@H]43)C3CCCCC3)s2)n1 [Example 29, N-((S)-2-((3aS,6S,6aS)-6-chloro-3-oxotetrahydro-2H-furo[3,2-b]pyrrol-4(5H)-yl)-1-cyclohexyl-2-oxoethyl)-5-(2-methylpyrimidin-4-yl)thiophene-2-carboxamide]

The next lines start with the compound.

Structure (SMILES)	Ki (human cathepsin K (CatK)) [nM]	Selectivity Ki(hCatS)/Ki(hCatK) (human cathepsin S (CatS))	Ki (human cathepsin S (CatS)) [nM]	inhibition at 31.6 µM (human cathepsin L (CatL)) [%]	inhibition at 10 µM (human cathepsin S (CatS); read-out: hCatS, inhibition [%] at 10 μM) [%]
O=C(N[C@H](C(=O)N1C[C@H](Cl)[C@H]2OCC(=O)[C@H]21)C1CCCCC1)c1sc(-c2cncnc2)cc1F [Example 53, N-((S)-2-((3aS,6S,6aS)-6-chloro-3-oxotetrahydro-2H-furo[3,2-b]pyrrol-4(5H)-yl)-1-cyclohexyl-2-oxoethyl)-3-fluoro-5-(pyrimidin-5-yl)thiophene-2-carboxamide]	34	8.9	302	40	–
O=C(N[C@H](C(=O)N1C[C@H](Cl)[C@H]2OCC(=O)[C@H]21)C1CCCCC1)c1ccc(-c2ccc[n+]([O-])c2)s1 [Example 70, 3-(5-(((S)-2-((3aS,6S,6aS)-6-chloro-3-oxotetrahydro-2H-furo[3,2-b]pyrrol-4(5H)-yl)-1-cyclohexyl-2-oxoethyl)carbamoyl)thiophen-2-yl)pyridine 1-oxide]	19	1.5	27	41	–
O=C(N[C@H](C(=O)N1C[C@H](Cl)[C@H]2OCC(=O)[C@H]21)C1CCCCC1)c1cc(F)c(-c2cccnn2)s1 [Example 54, N-((S)-2-((3aS,6S,6aS)-6-chloro-3-oxotetrahydro-2H-furo[3,2-b]pyrrol-4(5H)-yl)-1-cyclohexyl-2-oxoethyl)-4-fluoro-5-(pyridazin-3-yl)thiophene-2-carboxamide]	21	25.1	528	27	–
O=C(N[C@H](C(=O)N1C[C@H](Cl)[C@H]2OCC(=O)[C@H]21)C1CCCCC1)c1ncc(-c2cnc(C(F)(F)F)nc2)s1 [Example 67, N-((S)-2-((3aS,6S,6aS)-6-chloro-3-oxotetrahydro-2H-furo[3,2-b]pyrrol-4(5H)-yl)-1-cyclohexyl-2-oxoethyl)-5-(2-(trifluoromethyl)pyrimidin-5-yl)thiazole-2-carboxamide]	42	4.7	198	8	–
O=C(N[C@H](C(=O)N1C[C@H](Cl)[C@H]2OCC(=O)[C@H]21)C1CCCCC1)c1ncc(-c2cnc(C3CC3)nc2)s1 [Example 57, N-((S)-2-((3aS,6S,6aS)-6-chloro-3-oxotetrahydro-2H-furo[3,2-b]pyrrol-4(5H)-yl)-1-cyclohexyl-2-oxoethyl)-5-(2-cyclopropylpyrimidin-5-yl)thiazole-2-carboxamide]	42	3.6	150	23	–
O=C(N[C@H](C(=O)N1C[C@H](Cl)[C@H]2OCC(=O)[C@H]21)C1CCCCC1)c1nnc(-c2ccncc2)s1 [Example 28, N-((S)-2-((3aS,6S,6aS)-6-chloro-3-oxotetrahydro-2H-furo[3,2-b]pyrrol-4(5H)-yl)-1-cyclohexyl-2-oxoethyl)-5-(pyridin-4-yl)-1,3,4-thiadiazole-2-carboxamide]	–	–	–	14	83
O=C(N[C@H](C(=O)N1C[C@H](Cl)[C@H]2OCC(=O)[C@H]21)C1CCCCC1)c1ccc(-c2cccnc2)o1 [Example 10, N-((S)-2-((3aS,6S,6aS)-6-chloro-3-oxotetrahydro-2H-furo[3,2-b]pyrrol-4(5H)-yl)-1-cyclohexyl-2-oxoethyl)-5-(pyridin-3-yl)furan-2-carboxamide]	–	11.3	–	16	–
O=C(N[C@H](C(=O)N1C[C@H](Cl)[C@H]2OCC(=O)[C@H]21)C1CCCCC1)c1ccc(-c2ccncn2)o1 [Example 27, N-((S)-2-((3aS,6S,6aS)-6-chloro-3-oxotetrahydro-2H-furo[3,2-b]pyrrol-4(5H)-yl)-1-cyclohexyl-2-oxoethyl)-5-(pyrimidin-4-yl)furan-2-carboxamide]	–	2.7	–	18	–
O=C(N[C@H](C(=O)N1C[C@H](Cl)[C@H]2OCC(=O)[C@H]21)C1CCCCC1)c1cnc(-c2ccnnc2)o1 [Example 21, N-((S)-2-((3aS,6S,6aS)-6-chloro-3-oxotetrahydro-2H-furo[3,2-b]pyrrol-4(5H)-yl)-1-cyclohexyl-2-oxoethyl)-2-(pyridazin-4-yl)oxazole-5-carboxamide]	–	1.9	–	15	–
